Source: PubChem BioAssay AID1259407 (Chemical Carcinogenesis Research Information System (CCRIS), 2018)
Active and inactive are the calls of the source. How the calls were made is not given here.

Tested on: CCRIS mutagenicity, Ames/micronucleus/aberration tests
Test: CCRIS mutagenicity studies
[1] = Test System: AMES SALMONELLA TYPHIMURIUM, Strain/Indicator: TA98, Metabolic Activation: NONE, Method: STANDARD PLATE
[2] = Test System: AMES SALMONELLA TYPHIMURIUM, Strain/Indicator: TA100, Metabolic Activation: NONE, Method: STANDARD PLATE
[3] = Test System: AMES SALMONELLA TYPHIMURIUM, Strain/Indicator: TA1535, Metabolic Activation: NONE, Method: STANDARD PLATE
[4] = Test System: AMES SALMONELLA TYPHIMURIUM, Strain/Indicator: TA1537, Metabolic Activation: NONE, Method: STANDARD PLATE
[5] = Test System: AMES SALMONELLA TYPHIMURIUM, Strain/Indicator: TA1538, Metabolic Activation: NONE, Method: STANDARD PLATE
[6] = Test System: AMES SALMONELLA TYPHIMURIUM, Strain/Indicator: TA98, Metabolic Activation: NONE, Method: PREINCUBATION
[7] = Test System: AMES SALMONELLA TYPHIMURIUM, Strain/Indicator: TA100, Metabolic Activation: NONE, Method: PREINCUBATION

Cc1c(C)c(N)c(C)c(C)c1N
mutagenic call [1]: inactive; negative | mutagenic call (Test System: AMES SALMONELLA TYPHIMURIUM, Strain/Indicator: TA98, Metabolic Activation: RAT, LIVER, S-9, AROCLOR 1254, Method: STANDARD PLATE): inactive; negative | mutagenic call [2]: inactive; negative | mutagenic call (Test System: AMES SALMONELLA TYPHIMURIUM, Strain/Indicator: TA100, Metabolic Activation: RAT, LIVER, S-9, AROCLOR 1254, Method: STANDARD PLATE): inactive; negative | mutagenic call [3]: inactive; negative | mutagenic call (Test System: AMES SALMONELLA TYPHIMURIUM, Strain/Indicator: TA1535, Metabolic Activation: RAT, LIVER, S-9, AROCLOR 1254, Method: STANDARD PLATE): inactive; negative | mutagenic call [4]: inactive; negative | mutagenic call (Test System: AMES SALMONELLA TYPHIMURIUM, Strain/Indicator: TA1537, Metabolic Activation: RAT, LIVER, S-9, AROCLOR 1254, Method: STANDARD PLATE): inactive; negative | mutagenic call [5]: inactive; negative | mutagenic call (Test System: AMES SALMONELLA TYPHIMURIUM, Strain/Indicator: TA1538, Metabolic Activation: RAT, LIVER, S-9, AROCLOR 1254, Method: STANDARD PLATE): inactive; negative

NNc1nc(-c2ccc(N)cc2)cs1
mutagenic call (Test System: AMES SALMONELLA TYPHIMURIUM, Strain/Indicator: TA98, Metabolic Activation: RAT, LIVER, S-9, KC500 OR PHENOBARBITAL, Method: LIQUID SUSPENSION): active; positive | mutagenic call (Test System: AMES SALMONELLA TYPHIMURIUM, Strain/Indicator: TA100, Metabolic Activation: RAT, LIVER, S-9, KC500 OR PHENOBARBITAL, Method: LIQUID SUSPENSION): active; positive

O[C@H]1[C@H]2O[C@H]2c2c(ccc3cc4ccc5ccccc5c4nc23)[C@@H]1O
mutagenic call [6]: active; positive | mutagenic call [7]: active; positive | mutagenic call (Test System: CHINESE HAMSTER V-79, Strain/Indicator: V-79/8-AZAGUANINE, Metabolic Activation: NONE, Method: STANDARD PLATE): active; positive

CCCCOc1ccc2nc3cc(Cl)ccc3c(NCCCN(CC)CCCl)c2n1
mutagenic call [1]: active; positive | mutagenic call [2]: inactive; negative | mutagenic call [3]: inactive; negative | mutagenic call (Test System: AMES SALMONELLA TYPHIMURIUM, Strain/Indicator: TA1536, Metabolic Activation: NONE, Method: STANDARD PLATE): active; positive | mutagenic call [4]: active; positive | mutagenic call [5]: active; positive

CCCc1cc2ccccc2c2ccc3c(c12)C1OC1C(O)C3O (configuration not stated)
mutagenic call [7]: inactive; negative

CN(C)C(=O)/C=C/c1ccc([N+](=O)[O-])o1
mutagenic call [6]: active; positive

Cc1c(N)nc(C(CC(N)=O)NCC(N)C(N)=O)nc1C(=O)NC(C(=O)NC(C)C(O)C(C)C(=O)NC(C(=O)NCCc1nc(-c2nc(C(=O)NCCCCN(CCCCN=C(N)N)C(=N)N)cs2)cs1)C(C)O)C(OC1OC(CO)C(O)C(O)C1OC1OC(CO)C(O)C(OC(N)=O)C1O)c1cnc[nH]1 (configuration not stated)
mutagenic call (Test System: AMES SALMONELLA TYPHIMURIUM, Strain/Indicator: TA102, Metabolic Activation: NONE, Method: PREINCUBATION): active; positive

CC(C)NCC(O)COc1cccc2c1OCC(O)C2 (configuration not stated)
mutagenic call [1]: inactive; negative | mutagenic call (Test System: AMES SALMONELLA TYPHIMURIUM, Strain/Indicator: TA98, Metabolic Activation: S-9, Method: STANDARD PLATE): inactive; negative | mutagenic call [2]: inactive; negative | mutagenic call (Test System: AMES SALMONELLA TYPHIMURIUM, Strain/Indicator: TA100, Metabolic Activation: S-9, Method: STANDARD PLATE): inactive; negative | mutagenic call [3]: inactive; negative | mutagenic call (Test System: AMES SALMONELLA TYPHIMURIUM, Strain/Indicator: TA1535, Metabolic Activation: S-9, Method: STANDARD PLATE): inactive; negative | mutagenic call [4]: inactive; negative | mutagenic call (Test System: AMES SALMONELLA TYPHIMURIUM, Strain/Indicator: TA1537, Metabolic Activation: S-9, Method: STANDARD PLATE): inactive; negative | mutagenic call [5]: inactive; negative | mutagenic call (Test System: AMES SALMONELLA TYPHIMURIUM, Strain/Indicator: TA1538, Metabolic Activation: S-9, Method: STANDARD PLATE): inactive; negative | mutagenic call (Test System: E. COLI, Strain/Indicator: WP2 UVRA, Metabolic Activation: NONE, Method: STANDARD PLATE): inactive; negative | mutagenic call (Test System: E. COLI, Strain/Indicator: WP2 UVRA, Metabolic Activation: S-9, Method: STANDARD PLATE): inactive; negative

[O][Cl+][O-]
mutagenic call (End Point: IN VIVO MICRONUCLEUS, Test System: BONE MARROW POLYCHROMATIC ERYTHROCYTES, Species: MOUSE, Strain/Sex: DDY/MALE, Route: IP): active; positive

Cc1ccc2ncccc2c1
mutagenic call (Test System: AMES SALMONELLA TYPHIMURIUM, Strain/Indicator: TA98, Metabolic Activation: HAMSTER, LIVER, S-9, AROCLOR 1254 (30%), Method: PREINCUBATION): active; positive | mutagenic call [6]: inactive; negative | mutagenic call (Test System: AMES SALMONELLA TYPHIMURIUM, Strain/Indicator: TA98, Metabolic Activation: RAT, LIVER, S-9, AROCLOR 1254 (5 OR 10%), Method: PREINCUBATION): inactive; negative | mutagenic call (Test System: AMES SALMONELLA TYPHIMURIUM, Strain/Indicator: TA100, Metabolic Activation: HAMSTER, LIVER, S-9, AROCLOR 1254 (30%), Method: PREINCUBATION): active; positive | mutagenic call [7]: inactive; negative | mutagenic call (Test System: AMES SALMONELLA TYPHIMURIUM, Strain/Indicator: TA100, Metabolic Activation: RAT, LIVER, S-9, AROCLOR 1254 (30%), Method: PREINCUBATION): active; positive | mutagenic call (Test System: AMES SALMONELLA TYPHIMURIUM, Strain/Indicator: TA100, Metabolic Activation: RAT, LIVER, S-9, PHENOBARBITAL AND 5,6-BENZOFLAVONE, Method: PREINCUBATION): active; positive | mutagenic call (Test System: AMES SALMONELLA TYPHIMURIUM, Strain/Indicator: TA100, Metabolic Activation: RAT, LIVER, S-9, PHENOBARBITAL AND 5,6-NAPHTHOFLAVONE, Method: PREINCUBATION): active; positive | mutagenic call (Test System: AMES SALMONELLA TYPHIMURIUM, Strain/Indicator: TA100, Metabolic Activation: RAT, LIVER, S-9, Method: PREINCUBATION): active; positive | mutagenic call (Test System: UDS RODENT HEPATOCYTES, Strain/Indicator: THY INCORP (NON-S-PHASE), Metabolic Activation: NONE, Method: AUTORADIOGRAPHY): inactive; negative
